Assay results as given in PubChem BioAssay AID330 (DTP/NCI, 2004).
Where “and” joins values, the source holds several entries; their conditions need not be identical. Identical values can stand only once. Toxic doses and inconclusive results are not listed. Square brackets hold non-standard residues; d marks the D form. Peptide text beside a SMILES is read from it. * marks the point of attachment. ξ: configuration not given here. ξF = NC(Cc1ccccc1)C(=O)O; Bz = O=C(c1ccccc1)*

Tested on: P388 leukemia ip, CD2F1 mice, survival T/C
Assay: NCI In Vivo Anticancer Drug Screen. Data for tumor model P388 Leukemia (intraperitoneal) in CD2F1 (CDF1) mice
Conditions: endpoint: median survival time, higher = longer survival
Method in brief: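 Mice carrying the transplanted tumor received test compound or vehicle. Survival was recorded in each group, and the value is the treated-group measurement divided by that of the vehicle-treated control group.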

[1] = dose: 60.0 mg/kg/injection, schedule: Q01DX005 (ip), vehicle: saline with Tween-80
[2] = dose: 120.0 mg/kg/injection, schedule: Q01DX005 (ip), vehicle: saline with Tween-80
[3] = dose: 30.0 mg/kg/injection, schedule: Q01DX005 (ip), vehicle: saline with Tween-80
[4] = dose: 50.0 mg/kg/injection, schedule: Q01DX005 (ip), vehicle: Klucel (hydroxypropylcellulose) (HPC)
[5] = dose: 100.0 mg/kg/injection, schedule: Q01DX005 (ip), vehicle: Klucel (hydroxypropylcellulose) (HPC)
[6] = dose: 200.0 mg/kg/injection, schedule: Q01DX005 (ip), vehicle: Klucel (hydroxypropylcellulose) (HPC)

Q: `COC(=O)C1(c2cc3c(cc2OC)N(C)C2CCCCC32)CCCCCc2c1[nH]c1ccccc21` (stereo not drawn) was tested. Which T/C (dose: 12.5 mg/kg/injection, schedule: Q01DX001 (ip), vehicle: distilled water + Tween-80) did it give?
A: Its T/C is 106 % of control.

Q: And the T/C (dose: 25.0 mg/kg/injection, schedule: Q01DX001 (ip), vehicle: distilled water + Tween-80)?
A: Its T/C is 100 % of control.

Q: What about the T/C (dose: 50.0 mg/kg/injection, schedule: Q01DX001 (ip), vehicle: distilled water + Tween-80) of the same molecule?
A: Its T/C is 104 % of control.

Q: And the T/C (dose: 100.0 mg/kg/injection, schedule: Q01DX001 (ip), vehicle: distilled water + Tween-80)?
A: Its T/C is 100 % of control.

Q: What about the T/C (dose: 200.0 mg/kg/injection, schedule: Q01DX001 (ip), vehicle: distilled water + Tween-80) of the same molecule?
A: The T/C was 97 % of control.

Q: How did the T/C (dose: 0.31 mg/kg/injection, schedule: Q01DX009 (ip), vehicle: gum acacia) turn out when `C[C@@H]1CN1C1=CC(=O)C(N2C[C@H]2C)=CC1=O` was run?
A: The T/C was 122 % of control.

Q: And the T/C (dose: 1.25 mg/kg/injection, schedule: Q01DX009 (ip), vehicle: gum acacia)?
A: Its T/C is 169 % of control.

Q: And the T/C (dose: 2.5 mg/kg/injection, schedule: Q01DX009 (ip), vehicle: gum acacia)?
A: Its T/C is 166 % of control and 169 % of control.

Q: And the T/C (dose: 5.0 mg/kg/injection, schedule: Q01DX009 (ip), vehicle: gum acacia)?
A: Its T/C is 169 % of control and 173 % of control.

Q: What about the T/C (dose: 37.0 micrograms/kg/injection, schedule: Q01DX009 (ip), vehicle: gum acacia) of the same molecule?
A: The T/C was 102 % of control.

Q: And the T/C (dose: 75.0 micrograms/kg/injection, schedule: Q01DX009 (ip), vehicle: gum acacia)?
A: Its T/C is 113 % of control.

Q: What about the T/C (dose: 150.0 micrograms/kg/injection, schedule: Q01DX009 (ip), vehicle: gum acacia) of the same molecule?
A: Its T/C is 117 % of control.

Q: And the T/C (dose: 310.0 micrograms/kg/injection, schedule: Q01DX009 (ip), vehicle: gum acacia)?
A: Its T/C is 111 % of control.

Q: What does the source list for `Cc1ccc(C)n1N1CCOCC1`?
A: T/C [1]: 108 % of control; T/C [2]: 101 % of control; T/C (dose: 240.0 mg/kg/injection, schedule: Q01DX005 (ip), vehicle: saline with Tween-80): 100 % of control

Q: `C[CH2][Sn]([CH2]C)([O]P(=O)(C[Si](C)(C)C)c1ccccc1)[O]P(=O)(C[Si](C)(C)C)c1ccccc1` (stereo not drawn) was tested. Which T/C [3] did it give?
A: The T/C was 115 % of control.

Q: What about the T/C [2] of the same molecule?
A: Its T/C is 151 % of control.

Q: Which results are given for `O=C(OC1C(O)OC2COC(=O)c3cc(O)c(O)c(O)c3-c3c(cc(O)c(O)c3O)C(=O)OC2C1O)c1cc(O)c(O)c(O)c1` (stereo not drawn)?
A: T/C (dose: 3.75 mg/kg/injection, schedule: Q01DX009 (ip), vehicle: saline with Tween-80): 97 % of control; T/C (dose: 7.5 mg/kg/injection, schedule: Q01DX009 (ip), vehicle: saline with Tween-80): 102 % of control; T/C (dose: 15.0 mg/kg/injection, schedule: Q01DX009 (ip), vehicle: saline with Tween-80): 103 % of control

Q: How did the T/C (dose: 12.5 mg/kg/injection, schedule: Q01DX009 (ip), vehicle: saline) turn out when `CCCCCC(CN(C)C)C(O)/C=C/c1ccc(Cl)c(Cl)c1` (stereo not drawn) was run?
A: Its T/C is 109 % of control.

Q: And the T/C (dose: 25.0 mg/kg/injection, schedule: Q01DX009 (ip), vehicle: saline)?
A: The T/C was 107 % of control.

Q: With `COc1cccc2c(NCCCNCCCNc3c4ccccc4nc4c(OC)cccc34)c3ccccc3nc12` as the molecule, how does the T/C (dose: 5.0 mg/kg/injection, schedule: Q01DX009 (ip), vehicle: other) read?
A: Its T/C is 153 % of control.

Q: What about the T/C (dose: 10.0 mg/kg/injection, schedule: Q01DX009 (ip), vehicle: other) of the same molecule?
A: Its T/C is 157 % of control.

Q: What does the source list for `COc1cccc(/C=C\C(=O)c2ccccc(=O)c2O)c1OC`?
A: T/C (dose: 25.0 mg/kg/injection, schedule: Q01DX005 (ip), vehicle: Klucel (hydroxypropylcellulose) (HPC)): 106 % of control; T/C [4]: 101 % of control; T/C [5]: 114 % of control; T/C [6]: 107 % of control

Q: Which results are given for `Cc1cc2[nH]c3c(C#N)c(OC(=O)N(C)C)c(C)c(=O)n3c2cc1C`?
A: T/C (dose: 15.0 mg/kg/injection, schedule: Q01DX005 (ip), vehicle: saline with Tween-80): 100 % of control; T/C [3]: 108 % of control; T/C [1]: 100 % of control and 93 % of control

Q: With `O=C(O)CCC(=O)CCC(=O)c1ccc(O)c2ncccc12` as the molecule, how does the T/C [4] read?
A: Its T/C is 92 % of control.

Q: And the T/C [5]?
A: Its T/C is 105 % of control.

Q: And the T/C [6]?
A: The T/C was 111 % of control.

Q: `COC(=O)C(Cc1ccc(O)cc1)NC(=O)C(Cc1ccccc1)NC(C)=O` (stereo not drawn) (Ac-Phe-Tyr-OMe; configuration not given here) was tested. Which T/C [4] did it give?
A: The T/C was 92 % of control.

Q: What about the T/C [5] of the same molecule?
A: The T/C was 97 % of control.

Q: And the T/C [6]?
A: Its T/C is 88 % of control.

Q: Which T/C [4] does the source give for `COc1ccccc1-n1c(C)nc2c(cnn2C)c1=O` here?
A: Its T/C is 100 % of control.

Q: And the T/C [5]?
A: Its T/C is 100 % of control.

Q: What about the T/C [6] of the same molecule?
A: Its T/C is 103 % of control.

Q: Which T/C (dose: 50.0 mg/kg/injection, schedule: Q01DX005 (ip), vehicle: saline with Tween-80) does the source give for `O=C(CNC(=O)c1ccccc1)NCC(=O)NC(Cc1ccccc1)C(=O)O` (stereo not drawn) (Bz-Gly-Gly-[ξF]-OH) here?
A: The T/C was 96 % of control.

Q: What about the T/C (dose: 100.0 mg/kg/injection, schedule: Q01DX005 (ip), vehicle: saline with Tween-80) of the same molecule?
A: Its T/C is 100 % of control.
